Values joined by “and” are separate entries in the source; they are usually repeats but may differ in a detail not shown here. Equal entries are not always repeated.
Experiments:
[1] = pION μSOL kinetic aqueous solubility; format: physicochemical; conditions: in words; pH7.4
Human ALDH3A1 = target: T1, Human ALDH3A1 (Homo sapiens, UniProt P30838); assay: ALDH3A1 biochemical assay (benzaldehyde/NADP+, diaphorase-resazurin readout, 1,536-well); conditions: for IC50Ratio: 20X[SUB] vs 1X[SUB] benzaldehyde; for LLE: Table S7, pAC50 − cLogP; for inhibition mechanism (benzaldehyde substrate shift): retested at 4,000 μM benzaldehyde
T1 sequence (P30838 1-453): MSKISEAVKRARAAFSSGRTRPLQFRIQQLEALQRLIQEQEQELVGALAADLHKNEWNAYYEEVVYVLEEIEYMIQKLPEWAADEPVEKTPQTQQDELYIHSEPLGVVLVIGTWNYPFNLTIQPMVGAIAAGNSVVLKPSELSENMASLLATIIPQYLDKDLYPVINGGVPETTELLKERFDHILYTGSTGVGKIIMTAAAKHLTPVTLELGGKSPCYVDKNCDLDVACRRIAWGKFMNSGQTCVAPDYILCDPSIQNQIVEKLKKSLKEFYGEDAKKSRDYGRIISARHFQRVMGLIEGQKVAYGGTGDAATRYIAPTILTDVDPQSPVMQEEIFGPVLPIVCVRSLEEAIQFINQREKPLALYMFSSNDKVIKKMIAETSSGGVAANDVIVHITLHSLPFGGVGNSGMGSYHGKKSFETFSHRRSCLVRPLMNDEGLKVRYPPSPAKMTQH

OE19 (3A1) = target: T2, OE19 (3A1) (Homo sapiens, UniProt P30838); assay: Cellular ALDEFLUOR assay in OE19 cells (preferential ALDH3A1 expression); conditions: for IC50: cellular IC50 (Aldefluor), OE19 cells
T2 sequence (P30838 1-453): T1 sequence (P30838 1-453)

[2] = Metabolic stability in rat liver microsome fractions; format: in vitro ADME; conditions: in words
[3] = 20X[SUB] IC50 [µM], benzaldehyde 4,000 µM (~20× Km), NADP+ 1,000 µM
[4] = Table S5, biochemical curve class
[5] = Table S4, biochemical curve class

kinetic aqueous solubility [1] | AC50 (Human ALDH3A1) | IC50 (Human ALDH3A1; [3]) | IC50Ratio (Human ALDH3A1) | IC50 (Human ALDH3A1; ALDH3A1 biochemical IC50) | Efficacy (Human ALDH3A1; Table S5, biochemical) | CC-v2 (Human ALDH3A1; [4]) | LLE (Human ALDH3A1) | AC50 (OE19 (3A1)) | Cell_Efficacy (OE19 (3A1); Table S5, OE19 cells) | Cell_CC-v2 (OE19 (3A1); Table S5, cellular curve class) | IC50 (OE19 (3A1)) | Efficacy (Human ALDH3A1; Table S4, biochemical) | CC-v2 (Human ALDH3A1; [5]) | Cell_Efficacy (OE19 (3A1); Table S4, OE19 cells) | Cell_CC-v2 (OE19 (3A1); Table S4, cellular curve class) | microsomal stability [2] | SMILES | inhibition mechanism (benzaldehyde substrate shift) (Human ALDH3A1)
– | 78.2 nM | – | – | – | -73.44 | -1.2 | – | 8460 nM | -106.03 | -1.3 | – | – | – | – | – | – | O=C(NCc1ccc(-c2ccncc2)nc1)c1csc(N2CCN(c3cccc(C(F)(F)F)c3)CC2)n1 [NCGC01397294-01] | –
– | 12.6 nM | – | – | – | -100.15 | -1.1 | – | 965 nM | -88.16 | -1.1 | – | – | – | – | – | – | O=C(NCc1ccc(Cl)c(F)c1)c1csc(N2CCN(c3cccc(C(F)(F)F)c3)CC2)n1 [NCGC01407936-01] | –
limited kinetic aqueous solubility | 31.6 nM | 1 µM | 32 | 0.0316 µM and 0.032 µM and ~0.032 µM | -99.22 | -1.1 | 1.65 | 3.8 nM | -94.02 | -1.1 | 4 nM and 3.84 nM and ~4 nM | – | – | – | – | only moderate microsomal stability | Cc1nc(-c2cccc(CNC(=O)c3csc(N4CCN(c5cccc(C(F)(F)F)c5)CC4)n3)c2)cs1 [Compound 14] | consistent with substrate-competitive inhibition
– | 14.1 nM | – | – | – | -101.87 | -1.1 | – | 9650 nM | -60.41 | -1.4 | – | – | – | – | – | – | O=C(NCc1ccc(C#CC2CC2)cc1)c1csc(N2CCN(c3cccc(C(F)(F)F)c3)CC2)n1 [NCGC01407809-01] | –
– | 631 nM | – | – | – | -52.77 | -1.2 | – | – | 0.00 | 5 | – | – | – | – | – | – | O=C(NCc1cccc(N2CCC[S+]2(=O)[O-])c1)c1csc(N2CCN(c3cccc(C(F)(F)F)c3)CC2)n1 [NCGC01407948-01] | –
– | 460 nM | – | – | – | – | – | – | 1570 nM | – | – | – | -48.74 | -1.2 | -79.67 | -1.1 | – | Cc1cccc(CNC(=O)c2csc(N3CCN(c4cccc(OCc5ccc(Cl)cc5)c4)CC3)n2)c1 [NCGC01211114-01] | –
– | 2890 nM | – | – | – | – | – | – | 2790 nM | – | – | – | -71.38 | -1.2 | -82.14 | -1.1 | – | COc1cc(N2CCN(c3nc(C(=O)NCc4cccc(C)c4)cs3)CC2)ccc1F [NCGC01211397-01] | –
– | 89.2 nM | – | – | – | -65.00 | -1.2 | – | – | 0.00 | 4 | – | – | – | – | – | – | O=C(Nc1ccc(F)cc1)c1ccc(CNC(=O)c2csc(N3CCN(c4cccc(C(F)(F)F)c4)CC3)n2)cc1 [NCGC01407706-01] | –
– | 11.9 nM | – | – | – | -92.05 | -1.1 | – | 40.7 nM | -93.35 | -1.1 | – | – | – | – | – | – | O=C(NCc1ccc2ccccc2c1)c1csc(N2CCN(c3cccc(C(F)(F)F)c3)CC2)n1 [Compound 17] | –

Second part, the molecule before the results:

SMILES | kinetic aqueous solubility [1] | AC50 (Human ALDH3A1) | IC50 (Human ALDH3A1; [3]) | IC50Ratio (Human ALDH3A1) | IC50 (Human ALDH3A1; ALDH3A1 biochemical IC50) | Efficacy (Human ALDH3A1; Table S5, biochemical) | CC-v2 (Human ALDH3A1; [4]) | LLE (Human ALDH3A1) | AC50 (OE19 (3A1)) | Cell_Efficacy (OE19 (3A1); Table S5, OE19 cells) | Cell_CC-v2 (OE19 (3A1); Table S5, cellular curve class) | IC50 (OE19 (3A1)) | Efficacy (Human ALDH3A1; Table S4, biochemical) | CC-v2 (Human ALDH3A1; [5]) | Cell_Efficacy (OE19 (3A1); Table S4, OE19 cells) | Cell_CC-v2 (OE19 (3A1); Table S4, cellular curve class) | microsomal stability [2] | inhibition mechanism (benzaldehyde substrate shift) (Human ALDH3A1)
O=C(NCc1cccc(C2CC2)c1)c1csc(N2CCN(c3cccc(C(F)(F)F)c3)CC2)n1 [Compound 13] | limited kinetic aqueous solubility | 1.1 nM | 0.0316 µM | 28 | 0.001 µM | -107.26 | -1.1 | 3.663 | 13.6 nM | -65.41 | -1.2 | 13.6 nM and 14 nM and ~14 nM | – | – | – | – | – | consistent with substrate-competitive inhibition
Cc1cccc(CNC(=O)c2csc(N3CCN(c4ccc(C(N)=O)cc4)CC3)n2)c1 [NCGC01211194-01] | – | 40800 nM | – | – | – | – | – | – | 880 nM | – | – | – | -38.00 | -2.2 | -43.91 | -1.2 | – | –
N#Cc1cccc(CNC(=O)c2csc(N3CCN(c4cccc(C(F)(F)F)c4)CC3)n2)c1 [NCGC01397393-01] | – | 2.2 nM | – | – | – | -100.26 | -1.1 | – | 965 nM | -104.84 | -2.2 | – | – | – | – | – | – | –
N#CSc1ccc(NC(=O)c2csc(N3CCN(c4cccc(C(F)(F)F)c4)CC3)n2)c(F)c1 [NCGC01407980-01] | – | 15800 nM | – | – | – | -102.93 | -1.1 | – | 44.7 nM | -75.54 | -1.2 | – | – | – | – | – | – | –
O=C(NCc1c(Cl)cccc1Br)c1csc(N2CCN(c3cccc(C(F)(F)F)c3)CC2)n1 [NCGC01407972-01] | – | 50.1 nM | – | – | – | -90.79 | -1.1 | – | – | 0.00 | 4 | – | – | – | – | – | – | –
Cc1cccc(CNC(=O)c2csc(N3CCN(c4ccc(C5(C#N)CCCC5)cc4)CC3)n2)c1 [NCGC01210598-01] | – | 1020 nM | – | – | – | – | – | – | 3930 nM | – | – | – | -62.83 | -1.2 | -104.17 | -2.1 | – | –
Cc1cccc(CNC(=O)c2csc(N3CCN(c4ccc(OCCF)cc4)CC3)n2)c1 [NCGC01211173-01] | – | 3240 nM | – | – | – | – | – | – | 1400 nM | – | – | – | -45.43 | -1.2 | -87.33 | -1.1 | – | –
CCOC(=O)Cc1ccc(N2CCN(c3nc(C(=O)NCc4cccc(C)c4)cs3)CC2)cc1 [NCGC01212809-01] | – | 3240 nM | – | – | – | – | – | – | 3930 nM | – | – | – | -99.09 | -1.1 | -80.26 | -1.1 | – | –
Cc1ccc(C)n1-c1ccc(CNC(=O)c2csc(N3CCN(c4cccc(C(F)(F)F)c4)CC3)n2)cc1 [NCGC01408046-01] | – | 15800 nM | – | – | – | -91.30 | -1.1 | – | – | -23.84 | 4 | – | – | – | – | – | – | –
O=C(NCc1cccc(C(=O)N2CCCCC2)c1)c1csc(N2CCN(c3cccc(C(F)(F)F)c3)CC2)n1 [NCGC01407977-01] | – | – | – | – | – | -16.69 | 4 | – | 50100 nM | -33.22 | 5 | – | – | – | – | – | – | –
O=C(NCc1cccc(COc2ccccc2)c1)c1csc(N2CCN(c3cccc(C(F)(F)F)c3)CC2)n1 [Compound 18] | – | 14.1 nM | – | – | – | -100.33 | -1.1 | – | 43.1 nM | -79.42 | -1.1 | – | – | – | – | – | – | –

Reference: publication PMC13266984 (Journal of medicinal chemistry, 2026)
